Key:
Format in all cases: in vivo, rabbit
[1] = test system: femoral arterial and venous bypass thrombosis; assay: Femoral arterial and venous bypass thrombosis in rabbits, single intravenous administration; conditions: 15 min
Description: 1. Grouping and administration: 48 Rabbits were randomly divided into 6 groups, 8 rabbits per group. 1) Sham operation group (NS): Intravenous injection of the same volume of physiological saline; 2) positive control bivalirudin group (6 mg/kg); 3) positive control enoxaparin group (200 U/kg); 4) Low dose group of polypeptide 2 (3.0 mg/kg); 5) Medium dose group of polypeptide 2 (6.0 mg/kg); 6) High dose group of polypeptide 2 (12.0 mg/kg). Polypeptide 2 was administered by single intravenous administration. According to the body weight in kilograms of the rabbits, the sample was dissolved in 2 mL of physiological saline for single bolus injection. The sham operation group was administered with the same volume of physiological saline.
2.1 Surgery preparation of rabbits: Rabbit were sent to the laboratory for accommodation for one day, and then screened at first. Blood samples were taken from arteries within ears, which were subjected to blood routine analysis and APTT examinations, and the rabbits with a normal blood hemogram and APTT between 16 and 28 seconds were selected for experiments. The rabbits to be tested were fasted with free access to water in the night before the experiment. The rabbits were anesthetized with intravenous injection of 3% sodium pentobarbital solution at 1 ml/kg, fixed in the supine position, and then, the common carotid artery at one side, external jugular vein, femoral artery at one side, femoral vein, and forelimb vein at one side were isolated. The forelimb vein was subjected to intubation for administration; the left femoral vein was subjected to intubation for blood collection to determine the platelet aggregation rate: the femoral artery was used for the establishment of an arterial thrombosis model; the common carotid artery and external jugular vein were used for the establishment of an arterial and venous bypass thrombosis model.
2.2 Arterial and venous bypass thrombosis (AVST) model: An arterial and venous shunt consists of two casings, of which an outer casing has a length of about 8 cm and an inner diameter of 7.9 mm, the inner casing has a length of about 2.5 cm and an inner diameter of 4.8 mm. The polyethylene tube was charged with a silk thread about 8 cm long and filled with […] heparin solution, of which one end was inserted into the left femoral artery and the other end was inserted into the right femoral vein. After administration for 30 seconds, the blood flow was released, which flowed from the left artery to the polyethylene tube and returned to the right vein. After 15 minutes, the blood flow was interrupted, the silk thread was quickly removed and placed on an aluminum foil (size: 2.5 cm×2.5 cm), measured for its wet weight, and kept overnight at room temperature and weighed for its dry weight.
The femoral arteries in the […] and both sides in the rabbits were isolated and stabilized for 10 min before the administration was started. An AT model was established by covering the femoral artery with 50% FeCl3 filter paper while administration, and the filter paper was removed after covering for 15 minutes. An AVST model was established and it was taken out after […]. Observation was continued for 120 min after administration until the experiment was completed.
3.4 Thrombus weight: After the experiment was completed, the segment of the blood vessels in which there had been thrombus formation was cut off, weighed for the wet weight, and then kept overnight at room temperature and weighed for the dry weight. The thrombosis inhibitory rate was calculated with a calculation equation as follows: […]

[2] = test system: blood coagulation function; assay: PT in rabbits, intravenous maintenance administration
Description: (§1) 2. Grouping and administration: 10 rabbits were randomly divided into 3 groups, 2 to 3 rabbits per group. 1) Sham operation group (NS): Intravenous injection of the same volume of physiological saline, with the same operation method as above; 2) polypeptide 2 administration group: 8.0 mg/kg+20.0 mg/kg/h; 3) positive control enoxaparin group: 50 U/kg+150 U/kg/h. According to the body weight in kilograms of the rabbits, the first dose of the drug to be tested was dissolved in 2 mL of physiological saline for single bolus injection. The maintaining dose was dissolved in 9 ml of physiological saline, and placed in a double-channel micro-injection pump, which was dripped off within 90 minutes at a dripping speed of […]. The sham operation group was administered with the same volume of physiological saline.
4.2 Determination of blood coagulation function: Blood samples were taken and the blood function (PT, APTT) was determined at 0 min before administration, at points of 30 min, 60 min, 90 min after administration, and at points of 60 min, 120 min and 180 min after termination of administration, using a platelet-aggregation coagulation factor analyzer. Blood samples were centrifuged at 3510 rpm for 8 min to obtain platelet poor plasma (PPP). Reagent reconstruction and preservation were performed according to the operation requirements of the kit. Immediately after each blood sample was placed into a test cup and then added with PT, TT and APTT reagents, the test was started. After the test was completed, results were recorded.

platelet aggregation = assay: Platelet aggregation in rabbits, intravenous maintenance administration
Description: as §1
3.1 Surgery preparation of rabbits: Rabbits were sent to the laboratory for accommodation for one day, and then screened at first. Blood samples were taken from arteries within ears, which were subjected to blood routine analysis and APTT assay, and the rabbits with normal blood hemateikon and APTT between 16s to 28s were selected for experiments. The rabbits to be tested were fasted with free access to water for the night before the experiment. The rabbits were anesthetized with intravenous injection of 3% sodium pentobarbital solution at 1 ml/kg, fixed in the supine position, and then, the common carotid artery at one side, external jugular vein, femoral artery at one side, femoral vein, and forelimb vein at one side were isolated. The forelimb vein was subjected to intubation for administration; the left femoral vein was subjected to intubation for blood collection to determine the platelet aggregation rate; the femoral artery was used for the establishment of an arterial thrombosis model; the common carotid artery and external jugular vein were used for the establishment of an arterial and venous bypass thrombosis model.
4.1 Platelet aggregation rate: At points of 0 min before administration; 30 min. 60 min, 90 min for administration; 60 min, 120 min, 180 min after administration was terminated, 2.7 ml blood samples were taken from the femoral vein, rapidly injected into a centrifuge tube containing 0.3 ml of 3.8% sodium citrate solution, and fully mixed well. The resulted blood samples were centrifuged at 810 rpm (100 g) for 8 min to obtain PRP, and was centrifuged at 3500 rpm (1863 g) for 8 min to obtain PPP which was used to determine platelet aggregation.
Blood samples were taken before administration (0 min), 5 min and 15 min after administration, respectively, to determine the platelet aggregation rate which was used to calculate the inhibitory rate of platelet aggregation with a calculation equation as follows: […]

## Bivalirudin: Bivalirudin for Injection, Xi'an Xintong Pharmaceutical Research Co., Ltd.; positive control thrombin inhibitor
[1]; single iv 6.0 mg/kg
  Thrombus dry weight: 20.8 ± 6.3 mg
  Thrombus inhibitory rate: 11.86%

## D-Phe Pro Arg Pro Gly Gly Gly Gly Asn Gly Asp Phe Glu Glu Ile Pro Glu Glu Tyr Leu Glu Ala Ala Ala Lys Cys Har Gly Asp Trp Pro Cys [Polypeptide 2]
[2]; iv 8.0 + 20.0 (mg/kg+mg/kg/h), Administration 30 min
  PT: 12.7 ± 0.5 S
[2]; iv 8.0 + 20.0 (mg/kg+mg/kg/h), Administration 60 min
  PT: 9.4 ± 2.0 S
[2]; iv 8.0 + 20.0 (mg/kg+mg/kg/h), Administration 90 min
  PT: 11.6 ± 1.3 S
[2]; iv 8.0 + 20.0 (mg/kg+mg/kg/h), Before administration
  PT: 7.7 ± 1.8 S
[2]; iv 8.0 + 20.0 (mg/kg+mg/kg/h), Termination 60 min
  PT: 7.7 ± 0.0 S
[2]; iv 8.0 + 20.0 (mg/kg+mg/kg/h), Termination 120 min
  PT: 7.1 ± 1.8 S
[2]; iv 8.0 + 20.0 (mg/kg+mg/kg/h), Termination 180 min
  PT: 7.4 ± 1.3 S
Platelet aggregation; iv 8.0 + 20.0 (mg/kg + mg/kg/h), 60 min after termination
  inhibitory rate of platelet aggregation: 14.1 ± 3.5%
Platelet aggregation; iv 8.0 + 20.0 (mg/kg + mg/kg/h), 120 min after termination
  inhibitory rate of platelet aggregation: 7.5 ± 1.8%
Platelet aggregation; iv 8.0 + 20.0 (mg/kg + mg/kg/h), 180 min after termination
  inhibitory rate of platelet aggregation: 47.5 ± 2.5%
Platelet aggregation; iv 8.0 + 20.0 (mg/kg + mg/kg/h), Administration for 30 min
  inhibitory rate of platelet aggregation: 61.0 ± 14.1%
Platelet aggregation; iv 8.0 + 20.0 (mg/kg + mg/kg/h), Administration for 60 min
  inhibitory rate of platelet aggregation: 72.1 ± 9.6%
Platelet aggregation; iv 8.0 + 20.0 (mg/kg + mg/kg/h), Administration for 90 min
  inhibitory rate of platelet aggregation: 55.8 ± 7.7%
[1]; single iv 3.0 mg/kg
  Thrombus dry weight: 20.2 ± 4.3 mg
  Thrombus inhibitory rate: 14.48%
[1]; single iv 6.0 mg/kg
  Thrombus dry weight: 13.5 ± 5.3 mg
  Thrombus inhibitory rate: 42.80%
[1]; single iv 12.0 mg/kg
  Thrombus dry weight: 10.6 ± 6.8 mg
  Thrombus inhibitory rate: 55.24%

## Enoxaparin
[2]; iv 50 U + 150 U, Administration 30 min
  PT: 10.4 S
[2]; iv 50 U + 150 U, Administration 60 min
  PT: 10.4 S
[2]; iv 50 U + 150 U, Administration 90 min
  PT: 11.3 S
[2]; iv 50 U + 150 U, Before administration
  PT: 9.4 S
[2]; iv 50 U + 150 U, Termination 60 min
  PT: 8.2 S
[2]; iv 50 U + 150 U, Termination 120 min
  PT: 8.1 S
[2]; iv 50 U + 150 U, Termination 180 min
  PT: 7.6 S
Platelet aggregation; iv 50 U + 150 U, 60 min after termination
  inhibitory rate of platelet aggregation: 0.00%
Platelet aggregation; iv 50 U + 150 U, 120 min after termination
  inhibitory rate of platelet aggregation: 41.9%
Platelet aggregation; iv 50 U + 150 U, Administration for 30 min
  inhibitory rate of platelet aggregation: 26.7%
Platelet aggregation; iv 50 U + 150 U, Administration for 60 min
  inhibitory rate of platelet aggregation: 0.00%
Platelet aggregation; iv 50 U + 150 U, Administration for 90 min
  inhibitory rate of platelet aggregation: 35.27%
[1]; single iv 200 U (U/kg)
  Thrombus dry weight: 17.3 ± 6.5 mg
  Thrombus inhibitory rate: 26.88%

Source: patent US11643439B2, “Multi-target compound with anticoagulation and antiplatelet activity, preparation method therefor, and use thereof” (SHAANXI MICOT TECHNOLOGY LIMITED COMPANY, priority 2015, dated 2023)
